Laboratory results taken from patent US20250332139A1, “PS[…] AND THEIR USE FOR TREATING […] AND NE[…] DISORDERS” (Transcend Therapeutics, Inc., priority 2021, published 2025).
pKi: −log10 of the molar value. Read-outs that look alike come from different tables or passages of the source.

Columns and labels:
[1] = cited from earlier work
[2] = tested on: myelin basic protein (MBP) in the amygdala; assay: Immunohistochemistry of myelin basic protein; format: in vivo, rat; conditions: 10 mg/kg IP, single dose, 24 h
Protocol: Immunohistochemistry: The in-life portion of the study was conducted at WuXi Apptec (Cranbury, NJ). Sectioning and staining of brains took place at Neuroscience Associates (NSA, Knoxville, TN). […] Brains were post-fixed in PFA before shipment to NSA for processing and staining. Hemisected brains were mounted, sectioned and stained using standard protocols with myelin-basic protein primary antibody (MBP SMI-99, 1:5000, Biolegend, San Diego, CA) and anti-mouse biotinylated secondary antibody (BA-2001, Vector Laboratories, Newark, CA). Slides were imaged using a Huron Digital Pathology TissueScope LE120 whole slide scanning system. 20× objective was used with a 0.4 μm/pixel resolution.

[3] = target: norepinephrine transporter (NET) (Rattus norvegicus, UniProt Q63380); assay: Competitive radioligand binding, [3H]nisoxetine, rat brain lysates
Protocol: Radioligands used were: [^3H] Citalopram (PerkinElmer NET1039250UC); [^3H] Nisoxetine (PerkinElmer NET1084250UC); [^3H] WIN35428 (PerkinElmer NET1033250UC). […] Rat brains were dissected and tissue was homogenized in cold lysis buffer, centrifged at 100×g for 2 min and the supernatant was placed in a fresh tube. Supernatant was centrifuged at 13,000×g for 10 min at 4° C. to re-pellet the cell lysate. The pellet was resuspended in fresh wash buffer (50 mM Tris-HCl; 5 mM MgCl2; 5 mM EDTA) and centrifuged a third time. The pellet was then resuspended in wash buffer containing 10% sucrose as a cryoprotectant, divided into aliquots (0.3 mL) and stored at −80° C. A sample of the homogenate was analyzed for protein content using the SIGMA® BCA assay. On the day of the assay, the membrane preparation was thawed, and the pellet resuspended in final assay buffer. […] To each well was added 150 μL membranes, 50 μL of non-specific compound or buffer and 50 μL radioligand solution in buffer. […] Ki was subsequently calculated using the Cheng-Prusoff equation.

Sprague Dawley rats = assay: Forced Swim Test (FST); format: in vivo, rat
Source text: The Forced Swim Test (FST) is a classic, and the most used preclinical behavioral assay to screen compounds with antidepressant-like activity and has high predictive and face validity (Porsolt et al. (1977) Nature 266:730; Borsini and Meli (1988) Psychopharmacology 94:147). The premise of the FST is that when rats are placed into a cylinder filled with water, they will initially try to escape, but over time will become immobile. This increased immobility reflects behavioral despair, modeling a depressive-like state.
Forced Swim Test (FST): In the FST trial, rats were placed in a circular plexiglass container filled with water, with no means of escape. Water temperature was maintained at 22-25° C. and changed for every animal. After an acclimation period, rats were timed for inactivity (failure to struggle), activity, swim time and climbing time. Day 1 consisted of a 15 min acclimation trial, and Day 2 (24 h later) consisted of the 5 min test. A time sampling procedure was employed where animals were observed every 5 sec and scored for immobility, swimming, or climbing. Fluoxetine (10 mg/kg, IP, Sigma Aldrich) or 0.9% sterile saline vehicle (vehicle 3X group) were administered 23.5, 5, and 1 h before testing in the FST. […] The experimenter was blinded to treatment.
Forced Swim Test: In the FST trial, rats were placed in a circular plexiglass container filled with water, with no means of escape. Water temperature was maintained at 22-25° C. and changed for every animal. After an acclimation period, rats were timed for inactivity (failure to struggle), activity, swim time and climbing time. Day 1 consisted of a 15 min acclimation trial, and Day 2 (24 h later) consisted of the 5 min test. A time sampling procedure was employed where animals were observed every 5 sec and scored for immobility, swimming, or climbing. Fluoxetine (10 mg/kg, IP, Sigma Aldrich) or 0.9% sterile saline vehicle (vehicle 3X group) were administered 23.5, 5, and 1 h before testing in the FST. 2C-B (2.5, 10, or 20 mg/kg, IP, Cayman Chemical) or 0.9% saline vehicle (vehicle 1X group) were administered 30 min prior to FST testing. The experimenter was blinded to treatment.
Drug Treatment: Fluoxetine (10 mg/kg, IP, Sigma Aldrich) or 0.9% sterile saline vehicle were administered 23.5, 5, and 1 h before testing in the FST. […] Control animals received fluoxetine alone, methylone alone, or saline vehicle.
Forced Swim Test: In the FST trial, rats were placed in a circular plexiglass container filled with water, with no means of escape. Water temperature was maintained at 22-25° C. and changed for every animal. After an acclimation period, rats were timed for inactivity (failure to struggle), activity, swim time and climbing time. The experimenter and scorer were blind to treatment group. Day 1 consisted of a 15 min acclimation trial, and Day 2 (24 h later) consisted of the 5 min test. A time sampling procedure was employed where animals were observed every 5 sec and scored for immobility, swimming, or climbing.
The FST was performed and scored by an experimenter blind to treatment group according to standard protocols and based on a “modified FST” procedure (Slattery and Cryan (2012) Nat Protoc, 7:1009). Briefly, rats were placed in a circular plexiglass container (29.2 cm diameter, 49.5 cm height) filled with water to a depth of 30 cm so rats could not support themselves by touching the bottom of the tank. Water was maintained at 22-25° C. and was changed for every animal. Day 1 (Training) consisted of a 15 min acclimation trial, and Day 2 (Testing, 24 h later) consisted of the 5 min test. A time sampling procedure was employed where animals were observed every 5 seconds for the duration of the test session (60 counts or 5 minutes) and scored for immobility (defined as the failure to struggle), swimming (defined as a circular movement around the tank), or climbing (defined as an upwards escape behavior). […]

Chain of norepinephrine transporter (NET) (Q63380 1-617): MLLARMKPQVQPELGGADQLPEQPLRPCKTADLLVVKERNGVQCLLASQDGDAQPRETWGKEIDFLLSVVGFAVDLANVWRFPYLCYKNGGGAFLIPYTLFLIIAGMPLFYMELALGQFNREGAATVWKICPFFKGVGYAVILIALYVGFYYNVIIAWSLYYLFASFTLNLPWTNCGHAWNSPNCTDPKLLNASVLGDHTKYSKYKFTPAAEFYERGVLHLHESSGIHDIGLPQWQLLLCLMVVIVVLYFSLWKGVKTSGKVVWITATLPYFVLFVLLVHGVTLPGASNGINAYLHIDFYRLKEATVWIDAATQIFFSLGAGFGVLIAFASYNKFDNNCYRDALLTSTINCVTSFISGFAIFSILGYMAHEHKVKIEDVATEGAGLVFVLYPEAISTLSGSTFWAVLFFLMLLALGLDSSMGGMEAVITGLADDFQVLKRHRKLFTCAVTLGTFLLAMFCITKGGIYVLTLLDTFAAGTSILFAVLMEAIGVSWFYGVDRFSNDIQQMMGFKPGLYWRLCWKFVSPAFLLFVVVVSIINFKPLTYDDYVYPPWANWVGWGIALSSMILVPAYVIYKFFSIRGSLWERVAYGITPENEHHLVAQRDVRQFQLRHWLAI

SMILES: CNC(C)C(=O)c1ccc2c(c1)OCO2 (stereo not drawn) [methylone, 3,4-methylenedioxy-N-methylcathinone]
- AUC24 hr, Mean ([1]; 50 mg oral, N = 3): (989, 4.5%) hr*μg/L
- AUCinf, Mean ([1]; 50 mg oral, N = 3): (1063, 6.9%) hr*μg/L
- Cmax, Mean ([1]; 50 mg oral, N = 3): (153.0, 18.9%) μg/L
- Half-life, Mean ([1]; 50 mg oral, N = 3): (6.3, 15%) hr
- AUC10 hr, Mean ([1]; 100 mg oral, N = 6): (1586, 23.1%) hr*μg/L
- AUC24 hr, Mean ([1]; 100 mg oral, N = 6): (2268, 20.4%) hr*μg/L
- AUCinf, Mean ([1]; 100 mg oral, N = 6): (2444, 18.3%) hr*μg/L
- Cmax, Mean ([1]; 100 mg oral, N = 6): (303.6, 45%) μg/L
- Half-life, Mean ([1]; 100 mg oral, N = 6): (6.1, 23.3%) hr
- Tmax, Min-Max ([1]; 100 mg oral, N = 6): (0.75-3) hr
- AUC10 hr, Mean ([1]; 150 mg oral, N = 5): (2236, 29.0%) hr*μg/L
- AUC24 hr, Mean ([1]; 150 mg oral, N = 5): (3349, 36.5%) hr*μg/L
- AUCinf, Mean ([1]; 150 mg oral, N = 5): (3777, 42.2%) hr*μg/L
- Cmax, Mean ([1]; 150 mg oral, N = 5): (354.6, 30.7%) μg/L
- Half-life, Mean ([1]; 150 mg oral, N = 5): (6.8, 23.3%) hr
- Tmax, Min-Max ([1]; 150 mg oral, N = 5): (1.5-4) hr
- AUC10 hr, Mean ([1]; 200 mg oral, N = 7): (3310, 17.9%) hr*μg/L
- AUC24 hr, Mean ([1]; 200 mg oral, N = 7): (4796, 23.2%) hr*μg/L
- AUCinf, Mean ([1]; 200 mg oral, N = 7): (5267, 25.1%) hr*μg/L
- Cmax, Mean ([1]; 200 mg oral, N = 7): (603.6, 20.6%) μg/L
- Half-life, Mean ([1]; 200 mg oral, N = 7): (6.6, 15.1%) hr
- Tmax, Min-Max ([1]; 200 mg oral, N = 7): (1-4) hr
- MBP level in basolateral and central nuclei of the amygdala vs vehicle [2]: significant reduction in MBP
- pKi [3]: 5.94
- antidepressant-like effect in FST (Sprague Dawley rats; 15 mg/kg PO, single dose 2 hours before test, vs vehicle): significant antidepressant-like effect
- climbing behavior (Sprague Dawley rats; Example 8, Methylone 5 or 15 mg/kg IP): significantly increased climbing behavior
- climbing (Sprague Dawley rats; methylone 5-30 mg/kg IP, 30 min before test): only increased at the lowest dose
- effectiveness in FST (Sprague Dawley rats; methylone doses of 10 mg/kg or more): maximally effective
- swimming (Sprague Dawley rats; mid and high doses of methylone IP, 30 min before test): significantly increased swimming
- immobility (Sprague Dawley rats; single dose 5, 10, 15, 20, 30 mg/kg IP 30 min before test, vs saline vehicle): significantly reduced immobility
